For experiment [1], the target named is human HSP90 alpha protein (HSP90 N-terminal protein, amino acids 2-236) (Homo sapiens (Human), UniProt P07900). As to the kind of experiment: Measurement of HSP90-binding activity (AlphaScreen competitive assay, biotin-labeled geldanamycin). As to conditions: concentration inhibiting binding of biotin-labeled geldanamycin (40 nM) to purified HSP90 to 50% of control; read-out: HSP-binding activity IC50. For orientation: In Alpha technology, singlet oxygen from a donor bead excites a nearby acceptor bead.

For the next experiment, the system named is SK-BR-3 cells. Put plainly: Measurement of cell growth inhibition (crystal violet staining method). In kind it is cell-based. As to conditions: Homo sapiens; breast cancer SK-BR-3 cells, 72 hr culture with test substance.

We go through eleven compounds from US8779142B2, “Azabicyclo compound and salt thereof” (Taiho Pharmaceutical Co., Ltd., priority 2009, dated 2014).

As a reminder, the IC50 is the midpoint of a concentration-inhibition curve.

Take `COc1ccc(-c2cn(-c3ccnc4c3c(C(C)C)nn4-c3ccc(C(N)=O)c(N(O)C4CCCCC4)c3)cn2)cc1` [Example 83, 2-(Hydroxycyclohexylamino)-4-{3-isopropyl-4-(4-(4-methoxyphenyl)-1H-imidazol-1-yl)-1H-pyrazolo[3,4-b]pyridin-1-yl}benzamide]: the IC50 in experiment [1] amounted to 400 nM; with SK-BR-3 cells, 110 nM.
As to `CCNc1cc(C(N)=O)ccc1-n1nc(C(F)(F)F)c2c(-n3cnc(-c4cnn(C(C)C)c4)c3)ccnc21` [Example 187, 3-(Ethylamino)-4-{4-(4-(1-isopropyl-1H-pyrazol-4-yl)-1H-imidazol-1-yl)-3-(trifluoromethyl)-1H-pyrazolo[3,4-b]pyridin-1-yl}benzamide], the half-inhibitory concentration (IC50) stood at 620 nM in experiment [1] and 710 nM in the experiment with SK-BR-3 cells.
The corresponding values for `CC(C)c1cc(C(N)=O)ccc1-n1nc(C(C)C)c2c(-n3cnc(-c4cnn(C)c4)c3)ccnc21` [Example 104, 3-Isopropyl-4-{3-isopropyl-4-(4-(1-methyl-1H-pyrazol-4-yl)-1H-imidazol-1-yl)-1H-pyrazolo[3,4-b]pyridin-1-yl}benzamide] are 120 nM and 200 nM.
For `CC(C)c1cc(C(N)=O)ccc1-n1nc(C(C)C)c2c(-n3cnc(-c4cccnc4)c3)ccnc21` [Example 137, 3-Isopropyl-4-{3-isopropyl-4-(4-(pyridin-3-yl)-1H-imidazol-1-yl)-1H-pyrazolo[3,4-b]pyridin-1-yl}benzamide], the IC50 in experiment [1] stood at 280 nM; in the experiment on SK-BR-3 cells, 430 nM.
Consider `CCn1cc(-c2cn(-c3ccnc4c3c(C(C)C)nn4-c3ccc(C(N)=O)cc3Cl)cn2)cn1` [Example 145, 3-Chloro-4-{4-(4-(1-ethyl-1H-pyrazol-4-yl)-1H-imidazol-1-yl)-3-isopropyl-1H-pyrazolo[3,4-b]pyridin-1-yl}benzamide], for which the IC50 in experiment [1] came to 630 nM; with SK-BR-3 cells, 1500 nM.
Regarding `CCc1cn(-c2ccc(C(N)=O)c(NCCCCO)c2)c2nccc(-c3cnc4ccccc4c3)c12` [Example 74, 4-{3-Ethyl-4-(quinolin-3-yl)-1H-pyrrolo[2,3-b]pyridin-1-yl}-2-(4-hydroxybutylamino)benzamide], the IC50 in experiment [1] came out at 340 nM; in the experiment with SK-BR-3 cells, 270 nM.
Regarding `Cn1cc(-c2cn(-c3ccnc4c3c(C(F)(F)F)nn4-c3ccc(C(N)=O)cc3Br)cn2)cn1` [Example 170, 3-Bromo-4-{4-(4-(1-methyl-1H-pyrazol-4-yl)-1H-imidazol-1-yl)-3-(trifluoromethyl)-1H-pyrazolo[3,4-b]pyridin-1-yl}benzamide], the half-maximal inhibitory concentration (IC50) came out at 210 nM in experiment [1] and 370 nM in the experiment with SK-BR-3 cells.
Turning to `Cc1cc(C(N)=O)ccc1-n1nc(C(C)C)c2c(-c3cnc4ccccc4c3)ccnc21` [Example 80, 4-{3-Isopropyl-4-(quinolin-3-yl)-1H-pyrazolo[3,4-b]pyridin-1-yl}-3-methylbenzamide], the 50% inhibitory concentration (IC50) in experiment [1] came to 470 nM; in the experiment with SK-BR-3 cells it was 290 nM.
On to `CCNCCNc1cc(-n2cc(CC)c3c(-c4cnc5ccccc5c4)ccnc32)ccc1C(N)=O` [Example 75, 4-{3-Ethyl-4-(quinolin-3-yl)-1H-pyrrolo[2,3-b]pyridin-1-yl}-2-{2-(ethylamino)ethylamino}benzamide], for which the results for the IC50 (in experiment [1]; with SK-BR-3 cells) were 310 nM and 240 nM, respectively.
For the compound `CCc1cc(C(N)=O)ccc1-n1nc(C(C)C)c2c(-n3cnc(-c4cccnc4)c3)ccnc21` [Example 136, 3-Ethyl-4-{3-isopropyl-4-(4-(pyridin-3-yl)-1H-imidazol-1-yl)-1H-pyrazolo[3,4-b]pyridin-1-yl}benzamide], the concentration for half-maximal inhibition (IC50) in experiment [1] is 130 nM; with SK-BR-3 cells, 270 nM.
In the case of `CC(C)c1nn(-c2ccc(C(N)=O)cc2C2CC2)c2nccc(-n3cnc(-c4cnn(C)c4)c3)c12` [Example 105, 3-Cyclopropyl-4-{3-isopropyl-4-(4-(1-methyl-1H-pyrazol-4-yl)-1H-imidazol-1-yl)-1H-pyrazolo[3,4-b]pyridin-1-yl}benzamide], the IC50 in experiment [1] amounted to 140 nM; in the experiment with SK-BR-3 cells it was 250 nM.
